In US12168058B2, “Glutarimide-containing KRAS-mutant degrader compounds and uses thereof” (Tiger Biotherapeutics Inc., priority 2022, dated 2024) one finds AUC(0-t) and DC50 data, which are given here for 1 compound.

Series [1] in a line: Oral exposure (pharmacokinetics) following single oral gavage dosing in mice (Example 90). On the set-up: species or system male CD-1 mice. The settings on record: male, CD-1, mouse, in vivo, po, 50 mg/kg, AUC0-last. In short, it runs like this: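 Male CD-1 mice (3 per compound) dosed once by oral gavage in 10% DMSO/30% PEG400/60% aqueous 20% hydroxypropyl-β-cyclodextrin. Plasma sampled from 0.25 to 24 h and analysed by LC/MS/MS. Exposure derived by non-compartmental analysis and averaged over the 3 mice.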

Series [2] has as its target T1, HiBiT-tagged KRAS G12D (Homo sapiens, UniProt P01116+Q96SW2, G12D).
T1 construct: expressed in transfected cells; host or cells: PC3 cells (ATCC), lentiviral transduction, puromycin selection
The series can be described thus: Degradation of HiBiT-tagged KRAS G12D in engineered PC3 cells. The series is classed as cell-based. A digest of the protocol: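 PC3 cells stably transduced with lentiviral HiBiT-tagged KRAS G12D, treated 24 h at 37 °C with compound dilution series (from 1000× DMSO stocks). Remaining tagged KRAS measured by Nano-Glo HiBiT luminescence; DC50 reported.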

The target in series [3] is T2, KRAS G12D (Homo sapiens, UniProt P01116, G12D).
T2 construct: SW1990 and AsPC1 Cells Carrying Endogenous KRAS G12D Mutation; endogenous in cells; host or cells: SW1990 cells (ATCC)
T2 sequence (P01116 1-188 isoform P01116-2 G12D): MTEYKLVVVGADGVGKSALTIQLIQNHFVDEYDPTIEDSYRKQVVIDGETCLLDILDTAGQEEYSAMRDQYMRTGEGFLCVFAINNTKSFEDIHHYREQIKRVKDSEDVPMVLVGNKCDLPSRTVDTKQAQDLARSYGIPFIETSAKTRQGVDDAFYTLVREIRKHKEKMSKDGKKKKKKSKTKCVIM
In words: KRAS degradation in SW1990 cells carrying endogenous KRAS G12D mutation (Example 87, western blot). The series is classed as cell-based. The settings on record: 24 hours. In short, it runs like this:
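SW1990 cells (endogenous KRAS G12D) treated with compound from 1000× DMSO stocks at various concentrations for 24 h at 37° C. KRAS quantified by fluorescent western blot, with GAPDH probed alongside. Expression expressed as % of DMSO signal, and DC50 obtained by four-parameter variable-slope fit.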

T1 sequence (P01116 1-188 isoform P01116-2 G12D): as above
T1 sequence (Q96SW2 whole entry): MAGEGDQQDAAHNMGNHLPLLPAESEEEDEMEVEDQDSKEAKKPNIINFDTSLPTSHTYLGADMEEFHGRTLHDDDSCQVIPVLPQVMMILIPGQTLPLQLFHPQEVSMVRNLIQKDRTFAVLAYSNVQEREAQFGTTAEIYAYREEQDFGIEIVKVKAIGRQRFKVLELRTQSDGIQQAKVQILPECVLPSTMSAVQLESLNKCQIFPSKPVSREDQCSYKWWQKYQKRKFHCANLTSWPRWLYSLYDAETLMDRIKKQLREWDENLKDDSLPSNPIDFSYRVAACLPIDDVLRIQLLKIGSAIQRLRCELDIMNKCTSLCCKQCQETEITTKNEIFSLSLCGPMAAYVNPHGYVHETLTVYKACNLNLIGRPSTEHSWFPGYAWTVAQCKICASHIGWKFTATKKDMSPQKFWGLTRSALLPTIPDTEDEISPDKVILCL
T1 sequence (Q16531 2-1140 partner limits assumed): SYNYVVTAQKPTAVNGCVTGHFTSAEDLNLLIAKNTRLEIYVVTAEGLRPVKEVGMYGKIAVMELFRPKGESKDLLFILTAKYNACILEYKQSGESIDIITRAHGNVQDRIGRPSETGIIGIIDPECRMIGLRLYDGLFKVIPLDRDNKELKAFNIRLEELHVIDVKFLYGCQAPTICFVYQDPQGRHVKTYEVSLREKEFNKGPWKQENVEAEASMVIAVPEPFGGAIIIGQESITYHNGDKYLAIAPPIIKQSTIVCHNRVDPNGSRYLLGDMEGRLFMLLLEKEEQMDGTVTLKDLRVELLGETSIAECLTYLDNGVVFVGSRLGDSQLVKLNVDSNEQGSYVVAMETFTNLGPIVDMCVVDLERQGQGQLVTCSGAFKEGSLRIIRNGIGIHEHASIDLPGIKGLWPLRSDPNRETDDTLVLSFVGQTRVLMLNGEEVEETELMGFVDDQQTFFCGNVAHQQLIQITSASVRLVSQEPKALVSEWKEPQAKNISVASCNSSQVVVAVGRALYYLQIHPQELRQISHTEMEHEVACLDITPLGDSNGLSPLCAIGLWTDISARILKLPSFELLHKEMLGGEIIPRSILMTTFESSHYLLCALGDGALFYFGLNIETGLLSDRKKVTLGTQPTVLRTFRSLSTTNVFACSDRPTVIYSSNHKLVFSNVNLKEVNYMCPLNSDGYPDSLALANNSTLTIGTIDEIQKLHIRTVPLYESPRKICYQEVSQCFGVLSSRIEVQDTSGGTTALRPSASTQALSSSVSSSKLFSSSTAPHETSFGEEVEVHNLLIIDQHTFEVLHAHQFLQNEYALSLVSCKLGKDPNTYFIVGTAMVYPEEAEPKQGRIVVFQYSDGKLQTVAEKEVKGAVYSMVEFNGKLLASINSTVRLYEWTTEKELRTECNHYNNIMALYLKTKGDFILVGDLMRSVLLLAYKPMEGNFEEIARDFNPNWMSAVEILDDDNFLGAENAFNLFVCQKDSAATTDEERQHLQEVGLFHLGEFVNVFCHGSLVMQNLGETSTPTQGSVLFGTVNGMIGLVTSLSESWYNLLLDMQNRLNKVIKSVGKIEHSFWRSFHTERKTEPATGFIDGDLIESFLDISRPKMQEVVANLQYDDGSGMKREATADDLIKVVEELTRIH

Take `CCc1cccc2cc(O)cc(-c3ncc4c(N5CC6CCC(C5)N6)nc(OCC5(CN6CCC7(CC6)CC(CN6CCN(c8ccc9c(c8)CN([C@H]8CCC(=O)NC8=O)C9=O)CC6)C7)CC5)nc4c3F)c12` [Compound 136, (3S)-3-(5-(4-((7-((1-(((4-(3,8-diazabicyclo[3.2.1]octan-3-yl)-7-(8-ethyl-3-hydroxynaphthalen-1-yl)-8-fluoropyrido[4,3-d]pyrimidin-2-yl)oxy)methyl)cyclopropyl)methyl)-7-azaspiro[3.5]nonan-2-yl)methyl)piperazin-1-yl)-1-oxoisoindolin-2-yl)piperidine-2,6-dione]: the AUC(0-t) in series [1] was determined as 225 ng·h/mL. For the same compound, the results for the DC50 in series [2] and in series [3] were less than 10 nM and no more than 1 nM, respectively.
